Assay results as given in patent US20260062414A1, “NOVEL COCRYSTALS OF METHYLXANTHINES, THEIR POLYMORPHS AND PROCESS THEREOF” (FERTIS INDIA PVT LTD, priority 2022, published 2026).

Assay: Dissolution studies of cocrystals
Settings: for Release rate of active ingredient compared to pure form: dissolution study, cocrystal vs pure methylxanthine
Protocol: In an embodiment, the dissolution study of the cocrystals of Methylxanthines with the coformers Pterostilbene and Resveratrol were evaluated.

SMILES	Bioavailability compared to pure form	Solubility compared to pure form	Release rate of active ingredient compared to pure form
Cn1c(=O)c2[nH]cnc2n(C)c1=O.Oc1ccc(/C=C/c2cc(O)cc(O)c2)cc1 [TP:RS, Theophylline: Resveratrol (1:1) Cocrystal]	more bioavailable	lower solubility	slow-release rate
COc1cc(/C=C/c2ccc(O)cc2)cc(OC)c1.Cn1c(=O)[nH]c2ncn(C)c2c1=O [PX:PB, Paraxanthine: Pterostilbene (1:1) Cocrystal]	more bioavailable	lower solubility	slow-release rate
COc1cc(/C=C/c2ccc(O)cc2)cc(OC)c1.Cn1cnc2c1c(=O)[nH]c(=O)n2C [TB:PB, Theobromine: Pterostilbene (1:1) Cocrystal]	better bioavailability	improved solubility	–

The next lines start with the values.

Bioavailability compared to pure form	Solubility compared to pure form	Release rate of active ingredient compared to pure form	SMILES
more bioavailable	–	slow-release rate	COc1cc(/C=C/c2ccc(O)cc2)cc(OC)c1.Cn1c(=O)c2c(ncn2C)n(C)c1=O [CA:PB, Caffeine: Pterostilbene]
more bioavailable	lower solubility	slow-release rate	COc1cc(/C=C/c2ccc(O)cc2)cc(OC)c1.Cn1c(=O)c2c(n(C)c1=O)n(C)c(=O)n2C [TC:PB, Theacrine: Pterostilbene]
more bioavailable	lower solubility	slow-release rate	COc1cc(/C=C/c2ccc(O)cc2)cc(OC)c1.COc1nc2c(c(=O)n1C)n(C)c(=O)n2C [ML:PB, Methylliberine: Pterostilbene]
